What was measured:
Assay in all cases: Test B pre-/postemergence plant response
Type in all cases: in vivo
[1] = test system: pigweed (Amaranthus retroflexus)
Summary of the method: (§1)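 Greenhouse herbicide screen. Pre- and postemergence (1- to 4-leaf) spray of compound in solvent/surfactant mixture; loam–sand soil for pre, peat/vermiculite medium for post. Visual control rating 0–100 at 13 to 15 days after treatment.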

[2] = test system: Surinam grass (Brachiaria decumbens)
Summary of the method: as §1

[3] = test system: Italian ryegrass (Lolium multiflorum)
Summary of the method: as §1

kochia (Kochia scoparia) = test system: kochia (Kochia scoparia)
Summary of the method: as §1

corn (Zea mays) = test system: corn (Zea mays)
Summary of the method: as §1

[4] = test system: lambsquarters (Chenopodium album)
Summary of the method: as §1

[5] = test system: ragweed (common ragweed, Ambrosia elatior)
Summary of the method: as §1

[6] = test system: downy bromegrass (Bromus tectorum)
Summary of the method: as §1

[7] = test system: large crabgrass (Digitaria sanguinalis)
Summary of the method: as §1

[8] = 62 g ai/ha, postemergence, 0 is no effect, 100 is complete control, 13 to 15 days

For `O=C1CCCC(O)=C1C(=O)c1cnc(-c2ccccc2)n(C2CCCCC2)c1=O` [Compound 128, 3-cyclohexyl-5-[(2-hydroxy-6-oxo-1-cyclohexen-1-yl)carbonyl]-2-phenyl-4(3H)-pyrimidinone], which “Pigweed plant response rating (0 to 100 scale)” value [1, 8] is on record?
Its value is 98.

And the pest or weed control at 31 g/ha ([1]; Amaranthus retroflexus, post-emergence, Postemergence, 31 g ai/ha, 0 to 100 scale (0 no effect, 100 complete control), read-out: Plant response rating, Pigweed)?
The pest or weed control at 31 g/ha was 95%.

And the pest or weed control at 125 g/ha ([1]; Amaranthus retroflexus, post-emergence, Postemergence, 125 g ai/ha, scale 0 to 100 (0 no effect, 100 complete control), read-out: Plant response rating, Pigweed)?
The pest or weed control at 125 g/ha was 98%.

And the pest or weed control at 250 g/ha ([1]; Amaranthus retroflexus, post-emergence, Postemergence, 250 g ai/ha, scale 0 to 100 (0 no effect, 100 complete control), 13 to 15 days, read-out: Plant response rating, Pigweed)?
The pest or weed control at 250 g/ha was 100%.

What about the “Surinam Grass plant response rating (0 to 100 scale)” value [2, 8] of the same compound?
The value was 80.

What about the pest or weed control at 31 g/ha ([2]; Urochloa decumbens, post-emergence, Postemergence, 31 g ai/ha, 0 to 100 scale (0 no effect, 100 complete control), read-out: Plant response rating, Surinam Grass) of the same compound?
Its pest or weed control at 31 g/ha is 50%.

And the pest or weed control at 125 g/ha ([2]; Urochloa decumbens, post-emergence, Postemergence, 125 g ai/ha, scale 0 to 100 (0 no effect, 100 complete control), read-out: Plant response rating, Surinam Grass)?
The pest or weed control at 125 g/ha was 85%.

And the pest or weed control at 250 g/ha ([2]; Urochloa decumbens, post-emergence, Postemergence, 250 g ai/ha, scale 0 to 100 (0 no effect, 100 complete control), 13 to 15 days, read-out: Plant response rating, Surinam Grass)?
Its pest or weed control at 250 g/ha is 85%.

What about the “Ryegrass, Italian plant response rating (0 to 100 scale)” value [3, 8] of the same compound?
The value was 0.

And the pest or weed control at 31 g/ha ([3]; Lolium multiflorum, post-emergence, Postemergence, 31 g ai/ha, 0 to 100 scale (0 no effect, 100 complete control), read-out: Plant response rating, Ryegrass, Italian)?
The pest or weed control at 31 g/ha was 0%.

What about the pest or weed control at 125 g/ha ([3]; Lolium multiflorum, post-emergence, Postemergence, 125 g ai/ha, scale 0 to 100 (0 no effect, 100 complete control), read-out: Plant response rating, Ryegrass, Italian) of the same compound?
Its pest or weed control at 125 g/ha is 5%.

What about the pest or weed control at 250 g/ha ([3]; Lolium multiflorum, post-emergence, Postemergence, 250 g ai/ha, scale 0 to 100 (0 no effect, 100 complete control), 13 to 15 days, read-out: Plant response rating, Ryegrass, Italian) of the same compound?
Its pest or weed control at 250 g/ha is 30%.

And the “Kochia plant response rating (0 to 100 scale)” value (kochia (Kochia scoparia); [8])?
Its value is 85.

And the pest or weed control at 31 g/ha (kochia (Kochia scoparia); Bassia scoparia, post-emergence, Postemergence, 31 g ai/ha, 0 to 100 scale (0 no effect, 100 complete control), read-out: Plant response rating, Kochia)?
The pest or weed control at 31 g/ha was 60%.

What about the pest or weed control at 125 g/ha (kochia (Kochia scoparia); Bassia scoparia, post-emergence, Postemergence, 125 g ai/ha, scale 0 to 100 (0 no effect, 100 complete control), read-out: Plant response rating, Kochia) of the same compound?
The pest or weed control at 125 g/ha was 95%.

And the pest or weed control at 250 g/ha (kochia (Kochia scoparia); Bassia scoparia, post-emergence, Postemergence, 250 g ai/ha, scale 0 to 100 (0 no effect, 100 complete control), 13 to 15 days, read-out: Plant response rating, Kochia)?
The pest or weed control at 250 g/ha was 98%.

And the “Corn plant response rating (0 to 100 scale)” value (corn (Zea mays); [8])?
Its value is 50.

And the Corn plant response rating (crop injury, 0 = no effect, 100 = complete kill) at 31 g/ha (corn (Zea mays); Zea mays, post-emergence, Postemergence, 31 g ai/ha, 0 to 100 scale (0 no effect, 100 complete control))?
Its Corn plant response rating (crop injury, 0 = no effect, 100 = complete kill) at 31 g/ha is 40%.

And the Corn plant response rating (crop injury, 0 = no effect, 100 = complete kill) at 125 g/ha (corn (Zea mays); Zea mays, post-emergence, Postemergence, 125 g ai/ha, scale 0 to 100 (0 no effect, 100 complete control))?
The Corn plant response rating (crop injury, 0 = no effect, 100 = complete kill) at 125 g/ha was 60%.

What about the Corn plant response rating (crop injury, 0 = no effect, 100 = complete kill) at 250 g/ha (corn (Zea mays); Zea mays, post-emergence, Postemergence, 250 g ai/ha, scale 0 to 100 (0 no effect, 100 complete control), 13 to 15 days) of the same compound?
The Corn plant response rating (crop injury, 0 = no effect, 100 = complete kill) at 250 g/ha was 60%.

What about the “Lambsquarters plant response rating (0 to 100 scale)” value [4, 8] of the same compound?
Its value is 98.

And the pest or weed control at 31 g/ha ([4]; Chenopodium album, post-emergence, Postemergence, 31 g ai/ha, 0 to 100 scale (0 no effect, 100 complete control), read-out: Plant response rating, Lambsquarters)?
Its pest or weed control at 31 g/ha is 95%.

What about the pest or weed control at 125 g/ha ([4]; Chenopodium album, post-emergence, Postemergence, 125 g ai/ha, scale 0 to 100 (0 no effect, 100 complete control), read-out: Plant response rating, Lambsquarters) of the same compound?
The pest or weed control at 125 g/ha was 100%.

And the pest or weed control at 250 g/ha ([4]; Chenopodium album, post-emergence, Postemergence, 250 g ai/ha, scale 0 to 100 (0 no effect, 100 complete control), 13 to 15 days, read-out: Plant response rating, Lambsquarters)?
Its pest or weed control at 250 g/ha is 100%.

What about the “Ragweed plant response rating (0 to 100 scale)” value [5, 8] of the same compound?
The value was 85.

What about the pest or weed control at 31 g/ha ([5]; Ambrosia artemisiifolia, post-emergence, 360 h, Postemergence, 31 g ai/ha, 0 to 100 scale (0 no effect, 100 complete control), read-out: Plant response rating, Ragweed) of the same compound?
The pest or weed control at 31 g/ha was 85%.

What about the pest or weed control at 125 g/ha ([5]; Ambrosia artemisiifolia, post-emergence, 360 h, Postemergence, 125 g ai/ha, scale 0 to 100 (0 no effect, 100 complete control), read-out: Plant response rating, Ragweed) of the same compound?
Its pest or weed control at 125 g/ha is 95%.

And the pest or weed control at 250 g/ha ([5]; Ambrosia artemisiifolia, post-emergence, 360 h, Postemergence, 250 g ai/ha, scale 0 to 100 (0 no effect, 100 complete control), 13 to 15 days, read-out: Plant response rating, Ragweed)?
The pest or weed control at 250 g/ha was 98%.

What about the “Bromegrass, Downy plant response rating (0 to 100 scale)” value [6, 8] of the same compound?
Its value is 35.

And the pest or weed control at 31 g/ha ([6]; Bromus tectorum, post-emergence, Postemergence, 31 g ai/ha, 0 to 100 scale (0 no effect, 100 complete control), read-out: Plant response rating, Bromegrass, Downy)?
Its pest or weed control at 31 g/ha is 30%.

And the pest or weed control at 125 g/ha ([6]; Bromus tectorum, post-emergence, Postemergence, 125 g ai/ha, scale 0 to 100 (0 no effect, 100 complete control), read-out: Plant response rating, Bromegrass, Downy)?
The pest or weed control at 125 g/ha was 40%.

What about the pest or weed control at 250 g/ha ([6]; Bromus tectorum, post-emergence, Postemergence, 250 g ai/ha, scale 0 to 100 (0 no effect, 100 complete control), 13 to 15 days, read-out: Plant response rating, Bromegrass, Downy) of the same compound?
Its pest or weed control at 250 g/ha is 50%.

And the “Crabgrass, Large plant response rating (0 to 100 scale)” value [7, 8]?
The value was 85.

And the pest or weed control at 31 g/ha ([7]; Digitaria sanguinalis, post-emergence, Postemergence, 31 g ai/ha, 0 to 100 scale (0 no effect, 100 complete control), read-out: Plant response rating, Crabgrass, Large)?
The pest or weed control at 31 g/ha was 85%.

What about the pest or weed control at 125 g/ha ([7]; Digitaria sanguinalis, post-emergence, Postemergence, 125 g ai/ha, scale 0 to 100 (0 no effect, 100 complete control), read-out: Plant response rating, Crabgrass, Large) of the same compound?
Its pest or weed control at 125 g/ha is 95%.

What about the pest or weed control at 250 g/ha ([7]; Digitaria sanguinalis, post-emergence, Postemergence, 250 g ai/ha, scale 0 to 100 (0 no effect, 100 complete control), 13 to 15 days, read-out: Plant response rating, Crabgrass, Large) of the same compound?
The pest or weed control at 250 g/ha was 100%.

— patent US8952024B2, “Herbicidal pyrimidone derivatives” (E I du Pont de Nemours and Company, priority 2009, dated 2015)
